Results: US20240217966A1, “PHARMACEUTICAL COMPOSITION CONTAINING GLP-1 RECEPTOR AGONIST HAVING FUSED RING” (Shionogi & Co., Ltd., priority 2021, published 2024)
“And” between values parts separate entries of the source, which are not always exact repeats. Equal values may be shown once. Read-outs that look alike come from different tables or passages of the source.

Target: T1, Human GLP-1 receptor (Homo sapiens, UniProt P43220)
T1 construct: expressed in transfected cells
Assay: Measurement of GLP-1 receptor agonist activity (cAMP assay)
Assay type: cell-based
Conditions: cAMP increase in GLP-1 R/CHO-K1 cells, 2 nM human GLP-1 (7-36) = 100%, DMSO only = 0%
Method in brief: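 hGLP-1R/CHO-K1 cells in HBSS with 0.1% BSA, 20 mM HEPES, 0.1 mM IBMX and 0.2 mM RO20-1724 exposed to compound plus forskolin (400 μM stock) for 1 h at 37 °C. Intracellular cAMP read by HTRF (cAMP-d2/anti-cAMP cryptate, 1 h at room temperature).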

[1] = CHO-K1, maximum effect, read-out: Emax

T1 sequence (P43220 24-463): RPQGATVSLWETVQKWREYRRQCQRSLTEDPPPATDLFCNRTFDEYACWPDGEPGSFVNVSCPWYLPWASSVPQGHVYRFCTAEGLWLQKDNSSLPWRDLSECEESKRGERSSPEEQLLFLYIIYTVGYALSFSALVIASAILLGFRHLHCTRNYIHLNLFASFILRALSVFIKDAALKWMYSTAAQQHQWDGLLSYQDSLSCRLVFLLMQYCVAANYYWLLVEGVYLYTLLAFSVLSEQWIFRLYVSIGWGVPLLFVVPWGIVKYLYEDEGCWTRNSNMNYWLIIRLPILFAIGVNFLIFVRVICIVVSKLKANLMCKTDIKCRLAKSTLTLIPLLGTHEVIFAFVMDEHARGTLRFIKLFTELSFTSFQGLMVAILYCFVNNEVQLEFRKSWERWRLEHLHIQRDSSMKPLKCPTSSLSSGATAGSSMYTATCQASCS

Row | Compound | Emax [1] [%] | EC50 | Emax (maximum effect) [%]
1 | C[C@H]1c2nc(OCc3ccc(Cl)cc3Cl)c(C(F)(F)F)cc2CCN1Cc1nc2ccc(C(=O)O)nc2n1C[C@@H]1CCO1 [Compound I-351] | 121 | 0.156 nM | –
2 | C[C@H]1c2nc(OCc3cc(F)c(Cl)cc3F)c(C(F)(F)F)cc2CCN1Cc1nc2ccc(C(=O)O)nc2n1C[C@@H]1CCO1 [Compound I-352] | 113 | 0.122 nM | –
3 | Cc1ccc(COc2nc3c(cc2C(F)(F)F)CCN(Cc2nc4ccc(C(=O)O)c(F)c4n2C[C@@H]2CCO2)[C@H]3C)cc1 [Compound I-353] | 115 | 0.0558 nM | –
4 | COc1ccc(COc2nc3c(cc2C(F)(F)F)CCN(Cc2nc4ccc(C(=O)O)c(F)c4n2C[C@@H]2CCO2)[C@H]3C)cc1 [Compound I-354] | 122 | 0.139 nM | –
5 | C[C@H]1c2nc(OCc3ccc(Cl)cn3)c(C(F)(F)F)cc2CCN1Cc1nc2ccc(C(=O)O)c(F)c2n1C[C@@H]1CCO1 [Compound I-355] | 119 | 0.102 nM | –
6 | C[C@H]1c2nc(OCc3ccc(C4CC4)cc3)c(C(F)(F)F)cc2CCN1Cc1nc2ccc(C(=O)O)c(F)c2n1C[C@@H]1CCO1 [Compound I-356] | 118 | 0.25 nM | –
7 | COc1cc(Cl)ccc1COc1nc2c(cc1C(F)(F)F)CCN(Cc1nc3ccc(C(=O)O)c(F)c3n1C[C@@H]1CCO1)[C@H]2C [Compound I-357] | 123 | 0.0425 nM | –
8 | C[C@H]1c2nc(OCc3ccc(F)cc3F)c(C(F)(F)F)cc2CCN1Cc1nc2ccc(C(=O)O)c(F)c2n1C[C@@H]1CCO1 [Compound I-359] | 123 | 0.0474 nM | –
9 | C[C@H]1c2nc(OCc3ccc(OC(F)F)cc3F)c(C(F)(F)F)cc2CCN1Cc1nc2ccc(C(=O)O)c(F)c2n1C[C@@H]1CCO1 [Compound I-360] | 115 | 0.104 nM | –
10 | C[C@H]1c2nc(OCc3c(F)cc(F)cc3F)c(C(F)(F)F)cc2CCN1Cc1nc2ccc(C(=O)O)c(F)c2n1C[C@@H]1CCO1 [Compound I-361] | 108 | 0.0778 nM | –
11 | C[C@H]1c2nc(OCc3c(F)cc(Cl)cc3F)c(C(F)(F)F)cc2CCN1Cc1nc2ccc(C(=O)O)c(F)c2n1C[C@@H]1CCO1 [Compound I-362] | 133 | 0.0408 nM | –
12 | Cc1ccc(COc2nc3c(cc2C(F)(F)F)CCN(Cc2nc4c(F)cc(C(=O)O)cc4n2C[C@@H]2CCO2)[C@H]3C)cc1 [Compound I-363] | 115 | 0.0911 nM | –
13 | COc1ccc(COc2nc3c(cc2C(F)(F)F)CCN(Cc2nc4c(F)cc(C(=O)O)cc4n2C[C@@H]2CCO2)[C@H]3C)cc1 [Compound I-364] | 118 | 0.148 nM | –
14 | C[C@H]1c2nc(OCc3ccc(Cl)cn3)c(C(F)(F)F)cc2CCN1Cc1nc2c(F)cc(C(=O)O)cc2n1C[C@@H]1CCO1 [Compound I-365] | 115 | 0.0736 nM | –
15 | C[C@H]1c2nc(OCc3ccc(C4CC4)cc3)c(C(F)(F)F)cc2CCN1Cc1nc2c(F)cc(C(=O)O)cc2n1C[C@@H]1CCO1 [Compound I-366] | 114 | 0.421 nM | –
16 | COc1cc(Cl)ccc1COc1nc2c(cc1C(F)(F)F)CCN(Cc1nc3c(F)cc(C(=O)O)cc3n1C[C@@H]1CCO1)[C@H]2C [Compound I-367] | 107 | 0.0214 nM | –
17 | C[C@H]1c2nc(OCc3ccccc3Cl)c(C(F)(F)F)cc2CCN1Cc1nc2c(F)cc(C(=O)O)cc2n1C[C@@H]1CCO1 [Compound I-368] | 120 | 0.136 nM and 0.2 nM | 102
18 | C[C@H]1c2nc(OCc3ccc(F)cc3F)c(C(F)(F)F)cc2CCN1Cc1nc2c(F)cc(C(=O)O)cc2n1C[C@@H]1CCO1 [Compound I-369] | 112 | 0.0526 nM | –
19 | C[C@H]1c2nc(OCc3ccc(OC(F)F)cc3F)c(C(F)(F)F)cc2CCN1Cc1nc2c(F)cc(C(=O)O)cc2n1C[C@@H]1CCO1 [Compound I-370] | 109 | 0.143 nM | –

Row | Compound | Emax [1] [%] | EC50 | Emax (maximum effect) [%]
20 | C[C@H]1c2nc(OCc3c(F)cc(F)cc3F)c(C(F)(F)F)cc2CCN1Cc1nc2c(F)cc(C(=O)O)cc2n1C[C@@H]1CCO1 [Compound I-371] | 122 | 0.0495 nM | –
21 | C[C@H]1c2nc(OCc3c(F)cc(Cl)cc3F)c(C(F)(F)F)cc2CCN1Cc1nc2c(F)cc(C(=O)O)cc2n1C[C@@H]1CCO1 [Compound I-372] | 117 | 0.023 nM | –
22 | COc1cc(C(=O)O)cc2c1nc(CN1CCc3cc(C(F)(F)F)c(OCc4ccc(C)cc4)nc3[C@@H]1C)n2C[C@@H]1CCO1 [Compound I-373] | 122 | 0.0194 nM | –
23 | COc1cc(C(=O)O)cc2c1nc(CN1CCc3cc(C(F)(F)F)c(OCc4ccc(Cl)cc4)nc3[C@@H]1C)n2C[C@@H]1CCO1 [Compound I-374] | 100 | 0.0208 nM | –
24 | COc1cc(C(=O)O)cc2c1nc(CN1CCc3cc(C(F)(F)F)c(OCc4ccc(C5CC5)cc4)nc3[C@@H]1C)n2C[C@@H]1CCO1 [Compound I-375] | 103 | 0.0814 nM | –
25 | COc1cc(Cl)ccc1COc1nc2c(cc1C(F)(F)F)CCN(Cc1nc3c(OC)cc(C(=O)O)cc3n1C[C@@H]1CCO1)[C@H]2C [Compound I-376] | 106 | 0.0152 nM | –
26 | COc1cc(C(=O)O)cc2c1nc(CN1CCc3cc(C(F)(F)F)c(OCc4ccc(Cl)cc4Cl)nc3[C@@H]1C)n2C[C@@H]1CCO1 [Compound I-377] | 126 | 0.0176 nM | –
27 | COc1cc(C(=O)O)cc2c1nc(CN1CCc3cc(C(F)(F)F)c(OCc4cc(F)c(Cl)cc4F)nc3[C@@H]1C)n2C[C@@H]1CCO1 [Compound I-378] | 95.3 | 0.0146 nM | –
28 | COc1cc(C(=O)O)cc2c1nc(CN1CCc3cc(C(F)(F)F)c(OCc4c(F)cc(Cl)cc4F)nc3[C@@H]1C)n2C[C@@H]1CCO1 [Compound I-379] | 96 | 0.0121 nM | –
29 | O=C(O)c1cc(F)c2nc(CN3CCc4cc(C(F)(F)F)c(OCc5ccc(Cl)cc5)nc4C3)n(C[C@@H]3CCO3)c2c1 [Compound I-380] | 108 | 0.382 nM | –
30 | Cc1ccc(COc2nc3c(cc2C(F)(F)F)CCN(Cc2nc4c(F)cc(C(=O)O)cc4n2C[C@@H]2CCO2)C3)cc1 [Compound I-381] | 116 | 0.702 nM | –
31 | COc1cc(Cl)ccc1COc1nc2c(cc1C(F)(F)F)CCN(Cc1nc3c(F)cc(C(=O)O)cc3n1C[C@@H]1CCO1)C2 [Compound I-382] | 125 | 0.159 nM | –
32 | O=C(O)c1cc(F)c2nc(CN3CCc4cc(C(F)(F)F)c(OCc5ccc(F)cc5F)nc4C3)n(C[C@@H]3CCO3)c2c1 [Compound I-383] | 109 | 0.516 nM | –
33 | O=C(O)c1cc(F)c2nc(CN3CCc4cc(C(F)(F)F)c(OCc5ccc(Cl)cc5Cl)nc4C3)n(C[C@@H]3CCO3)c2c1 [Compound I-384] | 114 | 0.126 nM | –
34 | O=C(O)c1cc(F)c2nc(CN3CCc4cc(C(F)(F)F)c(OCc5ccc(Cl)cc5F)nc4C3)n(C[C@@H]3CCO3)c2c1 [Compound I-385] | 112 | – | –
35 | COc1cc(C(=O)O)cc2c1nc(CN1CCc3cc(C(F)(F)F)c(OCc4ccc(Cl)cc4)nc3C1)n2C[C@@H]1CCO1 [Compound I-386] | 112 | 0.0877 nM | –
36 | COc1cc(C(=O)O)cc2c1nc(CN1CCc3cc(C(F)(F)F)c(OCc4ccc(C)cc4)nc3C1)n2C[C@@H]1CCO1 [Compound I-387] | 122 | 0.178 nM | –
37 | COc1cc(Cl)ccc1COc1nc2c(cc1C(F)(F)F)CCN(Cc1nc3c(OC)cc(C(=O)O)cc3n1C[C@@H]1CCO1)C2 [Compound I-388] | 115 | 0.0523 nM | –
